The source of these data is patent US20170088532A1, “INHIBITORS OF LPXC” (The Regents of the University of California, priority 2013, published 2017).

The target in the assay is T1, E. Coli LpxC (Escherichia coli, UniProt P0A725).
T1 sequence (P0A725 1-305): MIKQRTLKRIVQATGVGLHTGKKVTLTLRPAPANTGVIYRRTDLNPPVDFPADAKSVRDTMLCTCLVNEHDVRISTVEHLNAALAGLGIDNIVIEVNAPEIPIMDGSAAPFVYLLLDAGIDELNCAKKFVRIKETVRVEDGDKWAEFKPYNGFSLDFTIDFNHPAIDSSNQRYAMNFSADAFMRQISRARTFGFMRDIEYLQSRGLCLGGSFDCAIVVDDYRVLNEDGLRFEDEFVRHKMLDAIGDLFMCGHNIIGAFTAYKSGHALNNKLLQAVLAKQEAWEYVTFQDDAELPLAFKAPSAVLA
The assay is described as follows: Inhibition of LpxC from E. coli. The class given is biochemical. Conditions: for inhibition at 50 µM: compound at 50 μM. The source says:
Methods for assessing inhibition of LpxC are known in the art.

Where [1] appears, read: Table 1, read-out: % Inhibition E. Coli LpxC at 50 μM.
Setting [2] is: Table 2, values in parentheses, read-out: (% Inhibition of E. Coli LpxC at 50 μM).

Where two headings read alike, the source gives them in different places.

Usually inhibition stands for the percentage by which the read-out fell short of the control. With `COc1ccc(-c2ccc(NCc3occc(=O)c3O)cc2)cc1` [Compound 027], the inhibition at 50 µM was 13% under setting [1] and 13% under setting [2].
Turning to `O=c1cc(CO)oc(CNc2ccc(-c3ccccc3)cc2)c1O` [Compound 010], the inhibition at 50 µM was determined as 39% under setting [1] and 39% under setting [2].
As usually defined, the IC50 is the concentration that inhibits the measured activity by half. For the molecule `COc1ccc(-c2ccc(NCc3oc(CO)cc(=O)c3O)cc2)cc1` [Compound 018, 3-hydroxy-6-(hydroxymethyl)-2-(((4′-methoxy-[1,1′-biphenyl]-4-yl)amino)methyl)-4H-pyran-4-one], the IC50 (E. Coli LpxC, Table 2, values without parentheses) was found to be 12.7 µM. The inhibition at 50 µM under setting [1] is 81%.
On to `Cc1cc(=O)c(O)c(CNc2ccc(-c3ccccc3)cc2)o1` [Compound 014], for which the inhibition at 50 µM under setting [1] amounted to 23% and the inhibition at 50 µM under setting [2] amounted to 23%.
Take `COC(=O)c1cc(=O)c(O)c(CNc2ccc(-c3ccc(OC)cc3)cc2)o1` [Compound 035]: the inhibition at 50 µM under setting [1] was 29% and the inhibition at 50 µM under setting [2] was 29%.
`O=c1ccoc(CNc2ccc(-c3ccccc3)cc2)c1O` [Compound 013]: the inhibition at 50 µM came out at 67% under setting [1] and 67% under setting [2].
